Test results taken from patent US20240092758A1, “IMIDAZOLO INDAZOLE COMPOUNDS AS JAK INHIBITORS” (Theravance Biopharma R&D IP, LLC, priority 2021, published 2024).

Assays:
[1] = molecular target: TYK2 (Homo sapiens (Human), UniProt P29597); experiment: Biochemical JAK kinase assay (LanthaScreen), Tyk2; details: read-out: Tyk2 pKi (converted)
Procedure, shortened: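 LanthaScreen format: phospho-STAT1 (pTyr701) detected with 2 nM Tb antibody after 10 mM EDTA quench. Kinase step used Km-level ATP and 200 nM STAT1 peptide, 1 h at ambient after 1 h pre-incubation. Inhibition fitted to IC50, reported as pKi.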

[2] = test system: IL-13 induced pSTAT6 in lung tissue; experiment: Murine model of IL-13 induced pSTAT6 induction in lung tissue; format: in vivo, mouse; details: balb/c mice, test compound 0.5 mg/mL, 50 μL by oral aspiration, IL-13 challenge eight hours later, lungs collected one hour after
Method: IL-13 binds to cell surface receptors activating members of the Janus family of kinases (JAK) which then phosphorylate STAT6 and subsequently activate further transcription pathways. In the described model, a dose of IL-13 was delivered locally into the lungs of mice to induce the phosphorylation of STAT6 (pSTAT6) which is then measured as the endpoint.
Adult balb/c mice from Harlan were used in the assay. On the day of study, animals were lightly anesthetized with isoflurane and administered either vehicle or test compound (0.5 mg/mL, […] total volume over several breaths) via oral aspiration.
Animals were placed in lateral recumbency post dose and monitored for full recovery from anesthesia before being returned to their home cage. Eight hours later, animals were once again briefly anesthetized and challenged with either vehicle or IL-13 (0.03 μg total dose delivered, 50 μL total volume) via oral aspiration before being monitored for recovery from anesthesia and returned to their home cage. One hour after vehicle or IL-13 administration, lungs were collected for both pSTAT6 detection using an AlphaLISA Immunoassay (PerkinElmer) and analyzed for total drug concentration.
Selected compounds of the present disclosure were tested in the assay. Activity in the model is evidenced by a decrease in the level of pSTAT6 present in the lungs of treated animals at 9 hours compared to the vehicle treated, IL-13 challenged control animals. The difference between the control animals which were vehicle-treated, IL-13 challenged and the control animals which were vehicle-treated, vehicle challenged dictated the 0% and 100% inhibitory effect, respectively, in any given experiment.

Sequence of TYK2 (P29597 whole entry): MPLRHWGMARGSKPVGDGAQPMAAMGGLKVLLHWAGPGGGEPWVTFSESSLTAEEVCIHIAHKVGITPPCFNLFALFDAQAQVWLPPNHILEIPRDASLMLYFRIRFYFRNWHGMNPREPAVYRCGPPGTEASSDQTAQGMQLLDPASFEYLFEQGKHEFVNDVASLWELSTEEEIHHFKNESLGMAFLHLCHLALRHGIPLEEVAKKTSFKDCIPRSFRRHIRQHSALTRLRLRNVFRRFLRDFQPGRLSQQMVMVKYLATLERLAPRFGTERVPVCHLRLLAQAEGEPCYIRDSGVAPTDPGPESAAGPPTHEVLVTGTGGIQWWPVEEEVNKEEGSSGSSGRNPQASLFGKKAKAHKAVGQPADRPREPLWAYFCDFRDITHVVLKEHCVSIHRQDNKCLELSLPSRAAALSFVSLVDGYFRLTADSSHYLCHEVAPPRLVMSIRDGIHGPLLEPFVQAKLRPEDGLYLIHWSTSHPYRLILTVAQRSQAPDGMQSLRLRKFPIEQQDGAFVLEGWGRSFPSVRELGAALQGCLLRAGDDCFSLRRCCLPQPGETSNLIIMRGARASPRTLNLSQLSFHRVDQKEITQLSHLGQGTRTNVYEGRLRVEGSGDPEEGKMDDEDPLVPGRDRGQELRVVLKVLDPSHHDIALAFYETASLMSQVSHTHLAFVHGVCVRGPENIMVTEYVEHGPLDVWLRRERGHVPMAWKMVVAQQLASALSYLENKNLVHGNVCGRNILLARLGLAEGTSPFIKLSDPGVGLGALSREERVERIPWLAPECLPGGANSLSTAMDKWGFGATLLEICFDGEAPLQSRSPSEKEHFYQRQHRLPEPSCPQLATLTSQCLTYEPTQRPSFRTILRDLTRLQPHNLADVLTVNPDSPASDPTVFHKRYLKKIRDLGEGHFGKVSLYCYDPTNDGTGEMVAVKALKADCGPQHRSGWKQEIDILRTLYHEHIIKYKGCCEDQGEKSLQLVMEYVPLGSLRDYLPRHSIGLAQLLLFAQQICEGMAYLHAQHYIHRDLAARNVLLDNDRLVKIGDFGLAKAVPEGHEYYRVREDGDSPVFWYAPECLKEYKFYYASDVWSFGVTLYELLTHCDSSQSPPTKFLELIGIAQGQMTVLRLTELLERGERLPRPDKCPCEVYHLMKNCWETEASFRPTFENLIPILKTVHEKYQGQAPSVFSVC

| Structure (SMILES) | Ki [1] | % pSTAT6 inhibition at 8 hours [2] |
| --- | --- | --- |
| CCc1cc(O)ccc1-c1ccc2c(-c3nc(C4=CCNCC4)c[nH]3)n[nH]c2c1F [Compound 2, 3-ethyl-4-(7-fluoro-3-(4-(1,2,3,6-tetrahydropyridin-4-yl)-1H-imidazol-2-yl)-1H-indazol-6-yl)phenol] | 1 to 10 nM | A (A represents between 80% and 100% inhibition) |
| CCc1cc(O)ccc1-c1ccc2c(-c3nc(C4=CCNCC4)c[nH]3)n[nH]c2c1 [Compound 3, 3-ethyl-4-(3-(4-(1,2,3,6-tetrahydropyridin-4-yl)-1H-imidazol-2-yl)-1H-indazol-6-yl)phenol] | 0.1 to 1 nM | A (A represents between 80% and 100% inhibition) |
| CCc1cc(O)ccc1-c1ccc2c(-c3nc(C4=CCNC4)c[nH]3)n[nH]c2c1F [Compound 1, 4-(3-(4-(2,5-dihydro-1H-pyrrol-3-yl)-1H-imidazol-2-yl)-7-fluoro-1H-indazol-6-yl)-3-ethylphenol] | 1 to 10 nM | A (A represents between 80% and 100% inhibition) |
